Assay [1] concerns LoVo cells. Nature of the assay: LoVo cell proliferation assay (CellTiter-Glo). Format: cell-based. Particulars: Homo sapiens, LoVo, 120 h, maximum concentration 10 µM, 9 concentrations. In short, it runs like this:
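LoVo cells, 2,000 per well, were treated after overnight attachment with 9-point 3-fold dilutions from 10 µM for 5 days at 37 °C. Viability was read by CellTiter-Glo luminescence. Inhibition % was taken relative to DMSO control, and IC50 came from the concentration–inhibition curve.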

The target in assay [2] is T1, ATR kinase (Homo sapiens, UniProt Q13535).
T1 construct: purchased Eurofins 14-953
Put plainly: Inhibitory effect on ATR kinase activity (Caliper mobility shift, FAM-labeled RAD17 peptide substrate). Format: biochemical. The essentials: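 Caliper mobility-shift assay with 1 nM ATR, FAM-labeled RAD17 peptide […] and 5 mM ATP in HEPES pH 7.5 with 10 mM MnCl2, run 3 h at 28 °C and stopped with EDTA. Compounds were tested in 10-point 3-fold dilutions from 1 µM. IC50 was fitted from % inhibition of substrate conversion versus blank control.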

The mark [3] stands for this setting: read-out: LoVo IC50 (nM), LoVo cells, 2,000 cells per well, 5 days incubation, CellTiter-Glo.
[4] abbreviates: read-out: ATR kinase IC50, 1 nM ATR kinase (Eurofins), 28°C for 3 hours, maximum concentration 1 µM, 10 concentrations.
Where [5] appears, read: LoVo cells, 2,000 cells per well, 5 days incubation, CellTiter-Glo, read-out: LoVo IC50.
[6] abbreviates: 1 nM ATR kinase (Eurofins), 28°C for 3 hours, maximum concentration 1 µM, 10 concentrations, read-out: ATR kinase IC50.

These results are taken from patent EP4692090A1 (Shanghai Fosun Pharmaceutical (Group) Co., Ltd., priority 2023, dated 2024).

Where two headings read alike, the source gives them in different places.

T1 sequence (Q13535 whole entry): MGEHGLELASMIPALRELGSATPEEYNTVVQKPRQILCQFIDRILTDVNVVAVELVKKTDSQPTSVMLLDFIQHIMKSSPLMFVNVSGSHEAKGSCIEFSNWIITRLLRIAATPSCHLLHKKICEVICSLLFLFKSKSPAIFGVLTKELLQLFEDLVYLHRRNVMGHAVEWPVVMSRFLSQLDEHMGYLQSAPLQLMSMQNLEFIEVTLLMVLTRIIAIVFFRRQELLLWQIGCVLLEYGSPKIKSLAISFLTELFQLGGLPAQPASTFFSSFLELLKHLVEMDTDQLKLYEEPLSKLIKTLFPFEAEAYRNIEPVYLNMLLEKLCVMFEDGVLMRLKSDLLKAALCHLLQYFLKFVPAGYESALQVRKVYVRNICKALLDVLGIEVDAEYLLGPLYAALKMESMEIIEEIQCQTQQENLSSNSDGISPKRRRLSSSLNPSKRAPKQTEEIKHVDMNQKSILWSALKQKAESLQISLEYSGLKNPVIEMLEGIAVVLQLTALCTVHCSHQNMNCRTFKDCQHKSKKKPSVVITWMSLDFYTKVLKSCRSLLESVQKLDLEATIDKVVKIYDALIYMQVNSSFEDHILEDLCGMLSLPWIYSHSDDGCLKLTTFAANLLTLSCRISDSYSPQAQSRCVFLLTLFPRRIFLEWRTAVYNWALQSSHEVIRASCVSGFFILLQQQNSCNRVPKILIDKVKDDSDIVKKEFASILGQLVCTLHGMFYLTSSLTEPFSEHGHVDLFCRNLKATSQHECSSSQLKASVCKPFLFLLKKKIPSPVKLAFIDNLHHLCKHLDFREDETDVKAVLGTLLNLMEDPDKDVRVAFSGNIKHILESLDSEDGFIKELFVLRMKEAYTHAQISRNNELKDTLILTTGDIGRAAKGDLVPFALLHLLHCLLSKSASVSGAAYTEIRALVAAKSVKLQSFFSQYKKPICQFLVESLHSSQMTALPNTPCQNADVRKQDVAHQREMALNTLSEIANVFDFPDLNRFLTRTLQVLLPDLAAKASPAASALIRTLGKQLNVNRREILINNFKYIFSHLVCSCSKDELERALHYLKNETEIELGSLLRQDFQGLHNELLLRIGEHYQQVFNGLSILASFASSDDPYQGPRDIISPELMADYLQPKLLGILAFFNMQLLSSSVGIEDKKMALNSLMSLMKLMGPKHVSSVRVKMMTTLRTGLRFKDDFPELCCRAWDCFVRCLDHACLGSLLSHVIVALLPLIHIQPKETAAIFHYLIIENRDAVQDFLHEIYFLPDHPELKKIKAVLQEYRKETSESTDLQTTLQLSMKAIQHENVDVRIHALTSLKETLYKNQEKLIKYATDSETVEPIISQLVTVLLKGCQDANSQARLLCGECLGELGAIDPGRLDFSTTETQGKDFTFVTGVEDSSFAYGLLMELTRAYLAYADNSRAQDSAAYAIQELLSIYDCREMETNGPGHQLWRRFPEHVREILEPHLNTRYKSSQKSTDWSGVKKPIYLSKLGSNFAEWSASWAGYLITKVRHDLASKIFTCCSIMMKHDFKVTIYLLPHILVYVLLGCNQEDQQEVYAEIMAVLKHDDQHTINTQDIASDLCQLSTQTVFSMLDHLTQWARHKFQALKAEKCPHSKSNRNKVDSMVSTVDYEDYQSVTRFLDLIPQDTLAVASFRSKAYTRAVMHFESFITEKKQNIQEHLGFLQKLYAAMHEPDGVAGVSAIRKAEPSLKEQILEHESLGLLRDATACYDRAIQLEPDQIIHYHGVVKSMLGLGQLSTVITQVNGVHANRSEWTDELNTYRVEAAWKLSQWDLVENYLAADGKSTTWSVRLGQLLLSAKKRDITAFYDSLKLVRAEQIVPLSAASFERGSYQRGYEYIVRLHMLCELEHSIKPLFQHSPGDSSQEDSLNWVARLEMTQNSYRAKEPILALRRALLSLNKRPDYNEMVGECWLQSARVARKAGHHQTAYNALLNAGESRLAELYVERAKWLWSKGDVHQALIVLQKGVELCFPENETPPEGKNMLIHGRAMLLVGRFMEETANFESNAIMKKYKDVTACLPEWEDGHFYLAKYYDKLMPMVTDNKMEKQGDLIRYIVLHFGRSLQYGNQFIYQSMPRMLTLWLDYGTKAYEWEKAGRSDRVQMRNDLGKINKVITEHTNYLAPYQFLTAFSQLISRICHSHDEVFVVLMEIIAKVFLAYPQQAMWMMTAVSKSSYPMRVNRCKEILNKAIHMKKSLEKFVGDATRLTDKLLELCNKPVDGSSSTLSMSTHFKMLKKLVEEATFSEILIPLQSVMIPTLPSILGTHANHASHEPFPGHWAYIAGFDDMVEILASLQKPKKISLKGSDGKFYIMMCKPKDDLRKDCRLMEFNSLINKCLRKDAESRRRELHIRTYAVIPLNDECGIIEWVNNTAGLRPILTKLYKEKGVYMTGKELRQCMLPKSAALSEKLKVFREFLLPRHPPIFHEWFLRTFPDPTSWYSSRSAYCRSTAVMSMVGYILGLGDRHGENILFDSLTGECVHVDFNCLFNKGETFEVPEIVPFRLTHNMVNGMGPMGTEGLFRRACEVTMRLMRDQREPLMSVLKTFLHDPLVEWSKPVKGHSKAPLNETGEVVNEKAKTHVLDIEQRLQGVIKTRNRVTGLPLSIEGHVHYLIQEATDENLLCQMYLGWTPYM
T1 sequence (Q8WXE1 whole entry partner): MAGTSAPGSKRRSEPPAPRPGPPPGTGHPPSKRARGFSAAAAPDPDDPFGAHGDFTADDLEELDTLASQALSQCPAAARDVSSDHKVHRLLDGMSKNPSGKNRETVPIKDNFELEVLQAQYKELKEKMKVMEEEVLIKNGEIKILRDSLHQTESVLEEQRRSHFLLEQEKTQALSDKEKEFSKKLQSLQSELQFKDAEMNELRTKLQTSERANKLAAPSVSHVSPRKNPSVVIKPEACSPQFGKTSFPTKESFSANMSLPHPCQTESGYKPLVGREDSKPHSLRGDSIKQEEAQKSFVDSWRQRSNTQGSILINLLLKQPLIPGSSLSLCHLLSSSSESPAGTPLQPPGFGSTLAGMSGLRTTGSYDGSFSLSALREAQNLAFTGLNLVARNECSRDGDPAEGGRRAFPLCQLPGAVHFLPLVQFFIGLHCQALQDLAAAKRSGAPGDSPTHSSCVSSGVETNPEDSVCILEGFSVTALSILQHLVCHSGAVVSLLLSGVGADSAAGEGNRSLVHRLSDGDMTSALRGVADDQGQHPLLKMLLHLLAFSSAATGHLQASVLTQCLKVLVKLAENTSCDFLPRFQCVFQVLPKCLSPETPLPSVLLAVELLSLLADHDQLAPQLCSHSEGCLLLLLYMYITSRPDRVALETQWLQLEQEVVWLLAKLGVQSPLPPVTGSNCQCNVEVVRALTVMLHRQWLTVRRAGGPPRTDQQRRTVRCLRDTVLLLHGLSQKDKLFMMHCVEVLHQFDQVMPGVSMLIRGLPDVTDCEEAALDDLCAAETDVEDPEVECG

As for `C[C@@H]1COCCN1c1cc2c3c(nn(-c4cc[nH]n4)c3n1)CCN(C13CC(C1)C3)C2=O` [Compound 139, (R)-7-(bicyclo[1.1.1]pentan-1-yl)-4-(3-methylmorpholinyl)-2-(1H-pyrazol-3-yl)-2,7,8,9-tetrahydro-6H-1,2,3,7-tetraazabenzo[cd]azulene-6-one], the IC50 in assay [1] (setting [3]) is 100 to 1000 nM; in assay [2] (setting [4]), less than 10 nM.
Take `C[C@@H]1COCCN1c1cc2c3c(nn(-c4cc[nH]n4)c3n1)CCOC2(C)C` [Compound 146, (R)-6,6-dimethyl-4-(3-methylmorpholino)-2-(1H-pyrazol-3-yl)-2,6,8,9-tetrahydro-7-oxa-1,2,3-triazabenzo[cd]azulene]: the values for the IC50 in assay [1] (setting [5]) and in assay [2] (setting [6]) were less than 100 nM and less than 10 nM, respectively.
Turning to `C[C@@H]1COCCN1c1cc2c3c(nn(-c4cc[nH]n4)c3n1)CCOC21CCC1` [Compound 147, (R)-4-(3-Methylmorpholino)-2-(1H-pyrazol-3-yl)-8,9-dihydro-2H-7-oxa-1,2,3-triazaspiro[benzo[cd]azulene-6,1'-cyclobutane]-1(9a),2a,2a1(5a),4-tetraene], the IC50 in assay [1] (setting [3]) was less than 100 nM; in assay [2] (ATR kinase IC50 (nM), 1 nM ATR kinase (Eurofins), 28°C for 3 hours, maximum concentration 1 µM, 10 concentrations), less than 10 nM.
In the case of `C[C@@H]1COCCN1c1cc2c3c(nn(-c4cc[nH]n4)c3n1)CCN(C)C2(C)C` [Compound 149, (R)-3-methyl-4-(6,6,7-trimethyl-2-(1H-pyrazol-3-yl)-6,7,8,9-tetrahydro-2H-1,2,3,7-tetraazabenzo[cd]azulen-4-yl)morpholine], the IC50 in assay [1] (setting [5]) was less than 100 nM; in assay [2] (setting [6]), less than 10 nM.
For the molecule `CC1c2cc(N3CCOC[C@H]3C)nc3c2c(nn3-c2cc[nH]n2)CCN1S(C)(=O)=NC1CC1` (stereo partly drawn) [Compound 153, (3R)-4-(7-(N-cyclopropyl-S-methylsulfonylimino)-6-methyl-2-(1H-pyrazol-3-yl)-6,7,8,9-tetrahydro-2H-1,2,3,7-tetraazabenzo[cd]azulen-4-yl)-3-methylmorpholine], the IC50 in assay [1] (setting [3]) fell in the range of 100 to 1000 nM; in assay [2] (setting [4]), 10 to 100 nM.
For `C[C@@H]1COCCN1c1cc2c3c(nc(-c4cc[nH]n4)n3n1)CCC(=O)N2C1(C)CC1` [Compound 154, (R)-6-(1-methylcyclopropyl)-4-(3-methylmorpholino)-2-(1H-pyrazol-3-yl)-8,9-dihydro-1,2a,3,6-tetraazabenzo[cd]azulene-7(6H )-one], the IC50 in assay [1] (setting [5]) was less than 100 nM; in assay [2] (setting [6]) it was less than 10 nM.
